# Experimental data taken from patent US11261186B2, “Biaryl derivative as GPR120 agonist” (LG CHEM, LTD., priority 2014, dated 2022).
# Molecular target: T1, hGPR120 (Homo sapiens, UniProt Q5NUL3)
# T1 construct: expressed in transfected cells; host or cells: CHO-K1
# T1 sequence (Q5NUL3 1-361): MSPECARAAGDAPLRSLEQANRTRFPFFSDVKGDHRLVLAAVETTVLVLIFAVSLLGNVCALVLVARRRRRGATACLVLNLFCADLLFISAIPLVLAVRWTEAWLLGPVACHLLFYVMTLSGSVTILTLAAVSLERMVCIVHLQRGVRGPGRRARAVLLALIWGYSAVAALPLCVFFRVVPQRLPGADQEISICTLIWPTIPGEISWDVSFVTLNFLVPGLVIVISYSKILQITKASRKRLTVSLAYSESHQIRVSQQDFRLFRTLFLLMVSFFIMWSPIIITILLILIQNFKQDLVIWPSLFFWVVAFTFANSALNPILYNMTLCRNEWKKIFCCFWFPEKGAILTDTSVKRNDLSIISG
# Experiment: Measurement of Activity of GPR120 Agonist (Cell-Based Assay), Calcium 5 dye fluorescence
# Conditions: CHO-K1 cells expressing Ga16 and hGPR120
# Summary of the method: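 Fluorescence increase (Ex 485 nm, Em 525 nm) after agonist addition was calculated as relative percent of the 1% DMSO-only signal. Cells were CHO-K1 stably carrying Gα16 plus human GPR120, dye-loaded for 1 h after overnight (18 h) culture.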
row,Compound,EC50 [µM]
1,"CCCOc1cccc(-c2cc(F)c(N3CCC(CC(=O)O)CC3)c(F)c2)n1 [Example 295, 2-[1-[2,6-difluoro-4-(6-propoxy-2-pyridyl)phenyl]-4-piperidyl]acetic acid]",< 0.2
2,"CC(C)Oc1cccc(-c2cc(F)c(N3CCC(CC(=O)O)CC3)c(F)c2)n1 [Example 296, 2-[1-[2,6-difluoro-4-(6-isopropoxy-2-pyridyl)phenyl]-4-piperidyl]acetic acid]",< 0.2
3,"O=C(O)CC1CCN(c2c(F)cc(-c3cccc(SC4CCC4)n3)cc2F)CC1 [Example 297, 2-[1-[4-(6-cyclobutylsulfanyl-2-pyridyl)-2,6-difluoro-phenyl]-4-piperidyl]acetic acid]",0.2 to 2
4,"CCCSc1cccc(-c2cc(F)c(N3CCC(CC(=O)O)CC3)c(F)c2)n1 [Example 298, 2-[1-[2,6-difluoro-4-(6-propylsulfanyl-2-pyridyl)phenyl]-4-piperidyl]acetic acid]",0.2 to 2
5,"O=C(O)CC1CCN(c2c(F)cc(-c3cccc(OC4CCCC4)n3)cc2F)CC1 [Example 299, 2-[1-[4-[6-(cyclopentoxy)-2-pyridyl]-2,6-difluoro-phenyl]-4-piperidyl]acetic acid]",0.2 to 2
6,"O=C(O)CC1CCN(c2c(F)cc(-c3cccc(OC4CCC4)c3)cc2F)CC1 [Example 300, 2-[1-[4-[3-(cyclobutoxy)phenyl]-2,6-difluoro-phenyl]-4-piperidyl]acetic acid]",0.2 to 2
7,"O=C(O)CC1CCN(c2c(F)cc(-c3cccc(OCC4CC4)c3)cc2F)CC1 [Example 301, 2-[1-[4-[3-(cyclopropylmethoxy)phenyl]-2,6-difluoro-phenyl]-4-piperidyl]acetic acid]",0.2 to 2
8,"CC(C)OCc1cccc(-c2cc(F)c(N3CCC(CC(=O)O)CC3)c(F)c2)c1 [Example 302, 2-[1-[2,6-difluoro-4-[3-(isopropoxymethyl)phenyl]phenyl]-4-piperidyl]acetic acid]",0.2 to 2
9,"CCOCc1cccc(-c2cc(F)c(N3CCC(CC(=O)O)CC3)c(F)c2)c1 [Example 303, 2-[1-[4-[3-(ethoxymethyl)phenyl]-2,6-difluoro-phenyl]-4-piperidyl]acetic acid]",0.2 to 2
10,"O=C(O)CC1CCN(c2c(F)cc(-c3ccc(F)c(OC4CCC4)c3)cc2F)CC1 [Example 304, 2-[1-[4-[3-(cyclobutoxy)-4-fluoro-phenyl]-2,6-difluoro-phenyl]-4-piperidyl]acetic acid]",0.2 to 2
11,"COc1ccc(-c2cc(F)c(N3CCC(CC(=O)O)CC3)c(F)c2)cc1OC1CCC1 [Example 305, 2-[1-[4-[3-(cyclobutoxy)-4-methoxy-phenyl]-2,6-difluoro-phenyl]-4-piperidyl]acetic acid]",0.2 to 2
12,"O=C(O)CC1CCN(c2c(F)cc(-c3cc(F)cc(OC4CCC4)c3)cc2F)CC1 [Example 306, 2-[1-[4-[3-(cyclobutoxy)-5-fluoro-phenyl]-2,6-difluoro-phenyl]-4-piperidyl]acetic acid]",0.2 to 2
13,"O=C(O)CC1CCN(c2c(F)cc(-c3cccc(OCC4CC4)n3)cc2Cl)CC1 [Example 307, 2-[1-[2-chloro-4-[6-(cyclopropylmethoxy)-2-pyridyl]-6-fluoro-phenyl]-4-piperidyl]acetic acid]",0.2 to 2
14,"O=C(O)CC1CCN(c2c(F)cc(-c3cccc(OCC4CCC4)n3)cc2F)CC1 [Example 308, 2-[1-[4-[6-(cyclobutylmethoxy)-2-pyridyl]-2,6-difluoro-phenyl]-4-piperidyl]acetic acid]",0.2 to 2
15,"CC(C)(C)Oc1cccc(-c2cc(F)c(N3CCC(CC(=O)O)CC3)c(F)c2)n1 [Example 309, 2-[1-[4-(6-tert-butoxy-2-pyridyl)-2,6-difluoro-phenyl]-4-piperidyl]acetic acid]",0.2 to 2
16,"Cc1c(OC2CCC2)cccc1-c1cc(F)c(N2CCC(CC(=O)O)CC2)c(F)c1 [Example 310, 2-[1-[4-[3-(cyclobutoxy)-2-methyl-phenyl]-2,6-difluoro-phenyl]-4-piperidyl]acetic acid]",2 to 20
17,"O=C(O)CC1CCN(c2c(F)cc(-c3ccc(Cl)c(OC4CCC4)n3)cc2F)CC1 [Example 311, 2-[1-[4-[5-chloro-6-(cyclobutoxy)-2-pyridyl]-2,6-difluoro-phenyl]-4-piperidyl]acetic acid]",0.2 to 2
18,"O=C(O)CC1CCN(c2c(F)cc(-c3cccc(C(=O)C4CC4)n3)cc2F)CC1 [Example 312, 2-[1-[4-[6-(cyclopropanecarbonyl)-2-pyridyl]-2,6-difluoro-phenyl]-4-piperidyl]acetic acid]",0.2 to 2
19,"O=C(O)CC1CCN(c2c(F)cc(-c3cccc(COC4CCC4)n3)cc2F)CC1 [Example 313, 2-[1-[4-[6-(cyclobutoxymethyl)-2-pyridyl]-2,6-difluoro-phenyl]-4-piperidyl]acetic acid]",> 20

row,Compound,EC50 [µM]
1,"CCOc1cccc(-c2cc(F)c(N3CCC(CC(=O)O)CC3)c(F)c2)n1 [Example 314, 2-[1-[4-(6-ethoxy-2-pyridyl)-2,6-difluoro-phenyl]-4-piperidyl]acetic acid]",0.2 to 2
2,"O=C(O)CC1CCN(c2c(F)cc(-c3cccc(OCC(F)(F)F)n3)cc2F)CC1 [Example 315, 2-[1-[2,6-difluoro-4-[6-(2,2,2-trifluoroethoxy)-2-pyridyl]phenyl]-4-piperidyl]acetic acid]",0.2 to 2
3,"CC(Oc1cccc(-c2cc(F)c(N3CCC(CC(=O)O)CC3)c(F)c2)n1)C(F)(F)F (stereo not shown) [Example 316, 2-[1-[2,6-difluoro-4-[6-(2,2,2-trifluoro-1-methyl-ethoxy)-2-pyridyl]phenyl]-4-piperidyl]acetic acid]",0.2 to 2
4,"O=C(O)CC1CCN(c2c(F)cc(-c3cccc(C4CCCC4)n3)cc2F)CC1 [Example 317, 2-[1-[4-(6-cyclopentyl-2-pyridyl)-2,6-difluoro-phenyl]-4-piperidyl]acetic acid]",0.2 to 2
5,"COC(c1cccc(-c2cc(F)c(N3CCC(CC(=O)O)CC3)c(F)c2)n1)C1CC1 (stereo not shown) [Example 318, 2-[1-[4-[6-[cyclopropyl(methoxy)methyl]-2-pyridyl]-2,6-difluoro-phenyl]-4-piperidyl]acetic acid]",2 to 20
6,"O=C(O)CC1CCN(c2c(F)cc(-c3cccc(OC4CCC4)n3)cc2Cl)CC1 [Example 319, 2-[1-[2-chloro-4-[6-(cyclobutoxy)-2-pyridyl]-6-fluoro-phenyl]-4-piperidyl]acetic acid]",0.2 to 2
7,"O=C(O)CC1CCN(c2ccc(-c3cccc(OC4CCC4)n3)cc2F)CC1 [Example 320, 2-[1-[4-[6-(cyclobutoxy)-2-pyridyl]-2-fluoro-phenyl]-4-piperidyl]acetic acid]",0.2 to 2
8,"O=C(O)CC1CN(c2c(F)cc(-c3cccc(OC4CCC4)n3)cc2F)C1 [Example 321, 2-[1-[4-[6-(cyclobutoxy)-2-pyridyl]-2,6-difluoro-phenyl]azetidin-3-yl]acetic acid]",< 0.2
9,"O=C(O)CC1CN(c2c(F)cc(-c3cccc(OCC4CC4)n3)cc2F)C1 [Example 322, 2-[1-[4-[6-(cyclopropylmethoxy)-2-pyridyl]-2,6-difluoro-phenyl]azetidin-3-yl]acetic acid]",< 0.2
10,"Cc1cc(OC2CCC2)nc(-c2cc(F)c(N3CCC(CC(=O)O)CC3)c(F)c2)n1 [Example 323, 2-[1-[4-[4-(cyclobutoxy)-6-methyl-pyrimidin-2-yl]-2,6-difluoro-phenyl]-4-piperidyl]acetic acid]",0.2 to 2
11,"CCCCOc1cccc(-c2cc(F)c(N3CCC(CC(=O)O)CC3)c(F)c2)n1 [Example 324, 2-[1-[4-(6-butoxy-2-pyridyl)-2,6-difluoro-phenyl]-4-piperidyl]acetic acid]",0.2 to 2
12,"Cc1cc(-c2cc(F)c(N3CCC(CC(=O)O)CC3)c(F)c2)nc(OC2CCC2)n1 [Example 325, 2-[1-[4-[2-(cyclobutoxy)-6-methyl-pyrimidin-4-yl]-2,6-difluoro-phenyl]-4-piperidyl]acetic acid]",0.2 to 2
13,"O=C(O)CC1CCN(c2c(F)cc(-c3csc(OC4CCC4)n3)cc2F)CC1 [Example 326, 2-[1-[4-[2-(cyclobutoxy)thiazol-4-yl]-2,6-difluoro-phenyl]-4-piperidyl]acetic acid]",0.2 to 2
14,"Cc1cc(OC2CCC2)nc(-c2cc(F)c(N3CCC(CC(=O)O)CC3)c(F)c2)c1 [Example 327, 2-[1-[4-[6-(cyclobutoxy)-4-methyl-2-pyridyl]-2,6-difluoro-phenyl]-4-piperidyl]acetic acid]",0.2 to 2
15,"Cc1cc(OC2CCC2)nc(-c2cc(F)c(N3CC(CC(=O)O)C3)c(F)c2)n1 [Example 328, 2-[1-[4-[4-(cyclobutoxy)-6-methyl-pyrimidin-2-yl]-2,6-difluoro-phenyl]azetidin-3-yl]acetic acid]",0.2 to 2
16,"O=C(O)CC1CCN(c2c(F)cc(-c3cncc(OC4CCC4)n3)cc2F)CC1 [Example 329, 2-[1-[4-[6-(cyclobutoxy)pyrazin-2-yl]-2,6-difluoro-phenyl]-4-piperidyl]acetic acid]",< 0.2
17,"O=C(O)CC1CCN(c2c(F)cc(-c3nccc(OC4CCC4)n3)cc2F)CC1 [Example 330, 2-[1-[4-[4-(cyclobutoxy)pyrimidin-2-yl]-2,6-difluoro-phenyl]-4-piperidyl]acetic acid]",< 0.2
18,"Cc1cc(OCC2CC2)nc(-c2cc(F)c(N3CCC(CC(=O)O)CC3)c(F)c2)n1 [Example 331, 2-[1-[4-[4-(cyclopropylmethoxy)-6-methyl-pyrimidin-2-yl]-2,6-difluoro-phenyl]-4-piperidyl]acetic acid]",0.2 to 2
